Laboratory results as given in patent US5932555A (priority 1997, dated 1999).
≈ marks a conversion by molar mass, not a printed value.

Tests used:
P388 [1] = assay: Mouse in vivo antitumor test, P388 transplanted
Protocol: (§1) 2×10^5 cells of P388 or P388/ADR were inoculated intraperitoneally into each of CDF1 mice (male, each weighing 20 g, 10 animals/group), and from the next day, the test solution was administered at 10, 5, and 1 mg/kg body weight/day respectively by intraperitoneal injection of 200 μl sample at each concentration once a day for 10 successive days. The numbers with time of mice which survived after administration was counted and the average survival days and T/C (survival days of treated mice/survival days of control mice) were calculated. The average body weights after 10 days were also measured.

Solubility = type: physicochemical
P388/ADR = assay: Mouse in vivo antitumor test, P388/ADR transplanted; settings: for T/C / average body weight after 10 days / average survival days: P388/ADR
Protocol: as §1

P388 [2] = assay: Cytotoxicity test on cultured tumor cell line P388 (MTT, 72 h); type: cell-based
Protocol: Cultured tumor cell lines P388 and P388/ADR were suspended in RPMI1640 medium containing 10% heat inactivated fetal calf serum (FCS) and 20 μM 2-mercaptoethanol whereby a cell suspension (5×10^4 cells/ml) was prepared.
72 hours thereafter, cell growth was measured by a calorimetric assay method using 3-(4,5-dimethyl-2-thiazolyl)-2,5-diphenyl-2H-tetrazolium bromide (MTT) as follows: 20 μl of 2 mg/ml MTT solution was added to each well and the cells were incubated for 4 hours at 37° C. Thereafter, 50 μl of 50% dimethylformamide solution containing 20% sodium dodecyl sulfate was added to each well and allowed to stand, so that the formed violet formazan crystal was dissolved, and its absorbance at 570 nm was measured in a microplate absorbance photometer (Immunoreader) and used as an indicator of the growth.
Degree of inhibition=[1-(absorbance in presence of sample)/(absorbance in
absence of sample)]×100 (1)

[3] = P388, 1 mg/kg/day i.p. × 10 days
[4] = P388, 5 mg/kg/day i.p. × 10 days
[5] = P388, 10 mg/kg/day i.p. × 10 days

SMILES: COC(CC1C(C)=CCC2C1(C)CCC1C(C)(C)C(O)C(OC3OC(C)C(OC(=O)c4cccc(O)c4)C(OC4OC(CO)C(O)C(O)C4NC(C)=O)C3O)CC12C)C(N)C(=O)O (centres unmarked) [0406TP-1]
- T/C (P388 [1]; [3]): 123%
- average body weight after 10 days (P388 [1]; [3]): 25.9 g
- average survival days (P388 [1]; [3]): 12.7 days
- T/C (P388 [1]; [4]): 123%
- average body weight after 10 days (P388 [1]; [4]): 26.3 g
- average survival days (P388 [1]; [4]): 12.7 days
- T/C (P388 [1]; [5]): 128%
- average body weight after 10 days (P388 [1]; [5]): 27.3 g
- average survival days (P388 [1]; [5]): 13.2 days
- therapeutic effect (improvement in survival rate) (P388 [1]; P388-transplanted mice, adriamycin 1 mg/kg/day vs 0406TP-1): same degree of therapeutic effect
- Solubility (Solubility; acetone): Insoluble
- Solubility (Solubility; chloroform): Insoluble
- Solubility (Solubility; ethanol): Soluble
- Solubility (Solubility; ether): Insoluble
- Solubility (Solubility; ethyl acetate): Insoluble
- Solubility (Solubility; methanol): Soluble
- Solubility (Solubility; water): Soluble
- T/C (P388/ADR; 1 mg/kg/day i.p. × 10 days): 130%
- average body weight after 10 days (P388/ADR; 1 mg/kg/day i.p. × 10 days): 26.2 g
- average survival days (P388/ADR; 1 mg/kg/day i.p. × 10 days): 14.4 days
- T/C (P388/ADR; 5 mg/kg/day i.p. × 10 days): 133%
- average body weight after 10 days (P388/ADR; 5 mg/kg/day i.p. × 10 days): 27.3 g
- average survival days (P388/ADR; 5 mg/kg/day i.p. × 10 days): 14.8 days
- T/C (P388/ADR; 10 mg/kg/day i.p. × 10 days): 165%
- average body weight after 10 days (P388/ADR; 10 mg/kg/day i.p. × 10 days): 26.4 g
- average survival days (P388/ADR; 10 mg/kg/day i.p. × 10 days): 18.3 days
- therapeutic effect (P388/ADR; P388/ADR-transplanted mice): significant therapeutic effect
- IC50 (P388 [2]; Mus musculus, P388, 72 h, MTT, read-out: IC50 (growth inhibition)): 0.65 µg/mL (≈ 0.728 µM)
- cytotoxicity (antitumor activity) on cultured tumor cells (P388 [2]; in words): strong cytotoxicity
